Columns and labels:
[1] = biological target: T1, Brd4 bromodomain 1 (BRD4(1)) (Homo sapiens, UniProt O60885); experiment: Inhibition of tetra-acetylated histone H4 binding to BET bromodomain (HTRF/FRET); conditions: His-tagged bromodomain 200 nM, biotinylated tetra-acetylated histone H4 peptide, 2 h room temperature
T1 construct: made in house; host or cells: E. coli BL21(DE3)
Procedure: Proteins were cloned and overexpressed with a N-terminal 6×His tag, then purified by nickel affinity followed by size exclusion chromatography. Briefly, E. coli BL21(DE3) cells were transformed with a recombinant expression vector encoding N-terminally Nickel affinity tagged bromodomains from Brd2, Brd3, Brd4. Cell cultures were incubated at 37° C. with shaking to the appropriate density and induced overnight with IPTG. The supernatant of lysed cells was loaded onto Ni-IDA column for purification, Eluted protein was pooled, concentrated and further purified by size exclusion chromatography. Fractions representing monomeric protein were pooled, concentrated, aliquoted, and frozen at −80° C. for use in subsequent experiments.
Binding of tetra-acetylated histone H4 and BET bromodomains was confirmed by a Homogenous Time Resolved Fluorescence Resonance Energy Transfer (HTRF®) method, N-terminally His-tagged bromodomains (200 nM) and biotinylated tetra-acetylated histone H4 peptide (25-50 nM, Millipore) were incubated in the presence of Europium Cryptate-labeled streptavidin (Cisbio Cat, #610SAKLB) and XL665-labeled monoclonal anti-His antibody (Cisbio Cat.1461HISXLB) in a white 96 well microtiter plate (Greiner). For inhibition assays, serially diluted test compound was added to these reactions in a 0.2% final concentration of DMSO. Duplicate wells were used for each concentration tested. Final buffer concentrations were 30 mM HEPES pH 7.4, 30 mM NaCl, 0.3 mM CHAPS, 20 mM phosphate pH 7.0, 320 mM KF, 0.08% BSA. After a 2 h incubation at room temperature, fluorescence was measured at 665 and 620 nm with a SynergyH4 plate reader (Biotek). The binding inhibitory activity was shown by a decrease in […] relative to 620 nm fluorescence. IC50 values were determined from a dose response curve.

[2] = system: Human AML MV-4-11 cells; experiment: Inhibition of cell proliferation in MV4-11 cells (CellTiter Aqueous One); type: cell-based; conditions: Homo sapiens, 72 h
Procedure: MV4-11 cells (CRL-9591) were plated at a density of 5×10^4 cells per well in 96 well flat bottom plates and treated with increasing concentrations of test compound or DMSO (0.1%) in IMDM media containing 10% FBS and penicillin/streptomycin. Triplicate wells were used for each concentration and a well containing only media was used as a control. Plates were incubated at 37° C., 5% CO2 for 72 h before adding 20 μL of the CellTiter Aqueous One Solution (Promega) to each well and incubated at 37° C., 5% CO2 for an additional 3-4 h. The absorbance was read at 490 nm in a spectrophotometer and the percentage of cell titer relative to DMSO-treated cells was calculated after correcting for background by subtracting the blank well's signal. IC50 values were calculated using the GraphPad Prism software.

[3] = system: cMYC; experiment: Inhibition of cMYC expression in MV4-11 cells (real-time PCR); type: cell-based, Human; conditions: 3 h, cMYC mRNA; for IC50: Homo sapiens, read-out: c-myc activity
Procedure: MV4-11 cells (CRL-9591) were plated at a density of 2.5×10^4 cells per well in 96 well U-bottom plates and treated with increasing concentrations of test compound or DMSO (0.1%) in IMDM media containing 10% FBS and penicillin/streptomycin, and incubated for 3 h at 37° C. Triplicate wells were used for each concentration. Cells were pelleted by centrifugation and harvested using the mRNA Catcher PLUS kit according to manufacturer's instructions. The eluted mRNA isolated was then used in a one-step quantitative real-time PCR reaction, using components of the RNA UltraSense™ One-Step Kit (Life Technologies) together with Applied Biosystems TaqMan® primer-probes for cMYC and Cyclophilin, Real-time PCR plates were run on a ViiA™7 real time PCR machine (Applied Biosystems), data was analyzed, normalizing the Ct values for cMYC to an internal control, prior to determining the fold expression of each sample, relative to the control.

[4] = system: hIL-6; experiment: Inhibition of hIL-6 mRNA transcription in LPS-stimulated U937 cells; type: cell-based, Human; conditions: Homo sapiens, U-937, PMA-differentiated U937 cells, 1 h pretreatment, LPS 3 h, read-out: IL-6 activity
Procedure: Human leukemic monocyte lymphoma U937 cells (CRL-1593.2) were plated at a density of 3.2×10^4 cells per well in a 96-well plate in 100 μL RPMI-1640 containing 10% FBS and penicillin/streptomycin, and differentiated into macrophages for 3 days in 60 ng/mL PMA ([…]) at 37° C. in 5% CO2 prior to the addition of compound. The cells were pretreated for 1 h with increasing concentrations of test compound in 0.1% DMSO prior to stimulation with 1 ug/mL lipopolysaccharide from Escherichia coli. Triplicate wells were used for each concentration. The cells were incubated at 37° C., 5% CO2 for 3 h before the cells were harvested. At time of harvest, media was removed and cells were rinsed in 200 μL PBS. Cells were harvested using the mRNA Catcher PLUS kit according to manufacturer's instructions. The eluted mRNA was then used in a one-step quantitative real-time PCR reaction using components of the RNA UltraSense™ One-Step Kit (Life Technologies) together with Applied Biosystems TaqMan® primer-probes for hIL-6 and Cyclophilin. Real-time PCR plates were run on a ViiA™7 real time PCR machine (Applied Biosystems), data was analyzed, normalizing the Ct values for hIL-6 to an internal control, prior to determining the fold expression of each sample, relative to the control.

| SMILES | IC50 [1] [nM] | IC50 [2] [nM] | IC50 [3] [nM] | IC50 [4] [nM] | c-myc activity [3] |
| --- | --- | --- | --- | --- | --- |
| COc1ncc(-c2c(C)noc2C)cc1NC(C)c1ccc(F)cc1 (stereo not shown) [Example 12, 5-(3,5-dimethylisoxazol-4-yl)-N-(1-(4-fluorophenyl)ethyl)-2-methoxypyridin-3-amine] | ≤ 300 | 300 to 3000 | 300 to 3000 | 300 to 3000 | – |
| COc1ncc(-c2c(C)noc2C)cc1NCc1ccncc1 [Example 17, 5-(3,5-dimethylisoxazol-4-yl)-2-methoxy-N-(pyridin-4-ylmethyl)pyridin-3-amine] | 300 to 3000 | 3000 to 30000 | 3000 to 30000 | 300 to 3000 | – |
| COc1ncc(-c2c(C)noc2C)cc1Nc1ccccc1F [Example 18, 5-(3,5-dimethylisoxazol-4-yl)-N-(2-fluorophenyl)-2-methoxypyridin-3-amine] | ≤ 300 | 3000 to 30000 | 3000 to 30000 | 300 to 3000 | – |
| COc1ncc(-c2c(C)noc2C)cc1Nc1ccc(F)cc1 [Example 19, 5-(3,5-dimethylisoxazol-4-yl)-N-(4-fluorophenyl)-2-methoxypyridin-3-amine] | ≤ 300 | 300 to 3000 | 300 to 3000 | 300 to 3000 | – |
| COc1ncc(-c2c(C)noc2C)cc1NCc1cc(C)sc1C [Example 20, 5-(3,5-dimethylisoxazol-4-yl)-N-((2,5-dimethylthiophen-3-yl)methyl)-2-methoxypyridin-3-amine] | ≤ 300 | 3000 to 30000 | 3000 to 30000 | 300 to 3000 | – |
| COc1ncc(-c2c(C)noc2C)cc1NCc1ccccn1 [Example 21, 5-(3,5-dimethylisoxazol-4-yl)-2-methoxy-N-(pyridin-2-ylmethyl)pyridin-3-amine] | ≤ 300 | 300 to 3000 | 300 to 3000 | 300 to 3000 | – |
| COc1ncc(-c2c(C)noc2C)cc1NC(C)c1ccccn1 (stereo not shown) [Example 24, 5-(3,5-dimethylisoxazol-4-yl)-2-methoxy-N-(1-(pyridin-2-yl)ethyl)pyridin-3-amine] | ≤ 300 | 300 to 3000 | 300 to 3000 | 300 to 3000 | – |
| COc1ncc(-c2c(C)noc2C)cc1NCCc1ccccc1 [Example 26, 5-(3,5-dimethylisoxazol-4-yl)-2-methoxy-N-phenethylpyridin-3-amine] | 300 to 3000 | 3000 to 30000 | 3000 to 30000 | 3000 to 30000 | – |
| Cc1noc(C)c1-c1cnc(OC(C)C)c(NCc2ccccc2)c1 [Example 27, N-benzyl-5-(3,5-dimethylisoxazol-4-yl)-2-isopropoxypyridin-3-amine] | ≤ 300 | 3000 to 30000 | 3000 to 30000 | 300 to 3000 | – |
| COc1ncc(-c2c(C)noc2C)cc1NCc1ccc(C#N)cc1F [Example 28, 4-(((5-(3,5-dimethylisoxazol-4-yl)-2-methoxypyridin-3-yl)amino)methyl)-3-fluorobenzonitrile] | ≤ 300 | 300 to 3000 | 3000 to 30000 | 300 to 3000 | – |
| COc1ncc(-c2c(C)noc2C)cc1NCc1ccc(C#N)c(F)c1 [Example 29, 4-(((5-(3,5-dimethylisoxazol-4-yl)-2-methoxypyridin-3-yl)amino)methyl)-2-fluorobenzonitrile] | ≤ 300 | 300 to 3000 | 300 to 3000 | ≤ 300 | – |
| COc1ncc(-c2c(C)noc2C)cc1OCc1ccc(C#N)cc1 [Example 30, 4-(((5-(3,5-dimethylisoxazol-4-yl)-2-methoxypyridin-3-yl)oxy)methyl)benzonitrile] | ≤ 300 | 3000 to 30000 | – | 3000 to 30000 | Not Active |
| COc1ncc(-c2c(C)noc2C)cc1OC(C)c1ccccc1 (stereo not shown) [Example 31, 4-(6-methoxy-5-(1-phenylethoxy)pyridin-3-yl)-3,5-dimethylisoxazole] | ≤ 300 | 300 to 3000 | 3000 to 30000 | 300 to 3000 | – |
| COc1ncc(-c2c(C)noc2C)cc1OCc1ccc(F)cc1 [Example 32, 4-(5-((4-fluorobenzyl)oxy)-6-methoxypyridin-3-yl)-3,5-dimethylisoxazole] | ≤ 300 | 3000 to 30000 | 3000 to 30000 | 300 to 3000 | – |
| COc1ncc(-c2c(C)noc2C)cc1NCc1cccnc1 [Example 33, 5-(3,5-dimethylisoxazol-4-yl)-2-methoxy-N-(pyridin-3-ylmethyl)pyridin-3-amine] | ≤ 300 | 300 to 3000 | 300 to 3000 | 300 to 3000 | – |
| COc1ncc(-c2c(C)noc2C)cc1Nc1ccc(C#N)cc1 [Example 35, 4-((5-(3,5-dimethylisoxazol-4-yl)-2-methoxypyridin-3-yl)amino)benzonitrile] | ≤ 300 | 3000 to 30000 | 3000 to 30000 | 300 to 3000 | – |
| COc1ncc(-c2c(C)noc2C)cc1Nc1ccc(Cl)cc1 [Example 36, N-(4-chlorophenyl)-5-(3,5-dimethylisoxazol-4-yl)-2-methoxypyridin-3-amine] | ≤ 300 | 300 to 3000 | 300 to 3000 | 3000 to 30000 | – |
| COc1ncc(-c2c(C)noc2C)cc1OCc1ccsc1 [Example 37, 4-(6-methoxy-5-(thiophen-3-ylmethoxy)pyridin-3-yl)-3,5-dimethylisoxazole] | ≤ 300 | 300 to 3000 | 300 to 3000 | 300 to 3000 | – |
| Cc1noc(C)c1-c1cnc(Oc2ccccc2)c(NCc2ccccc2)c1 [Example 38, N-benzyl-5-(3,5-dimethylisoxazol-4-yl)-2-phenoxypyridin-3-amine] | ≤ 300 | 3000 to 30000 | 300 to 3000 | 300 to 3000 | – |
| CCOc1ncc(-c2c(C)noc2C)cc1NCc1ccccc1 [Example 39, N-benzyl-5-(3,5-dimethylisoxazol-4-yl)-2-ethoxypyridin-3-amine] | ≤ 300 | 300 to 3000 | 300 to 3000 | 300 to 3000 | – |
| COc1ncc(-c2c(C)noc2C)cc1OCc1ccccn1 [Example 40, 4-(6-methoxy-5-(pyridin-2-ylmethoxy)pyridin-3-yl)-3,5-dimethylisoxazole] | ≤ 300 | 3000 to 30000 | 300 to 3000 | 300 to 3000 | – |
| COc1ncc(-c2c(C)noc2C)cc1NCc1nccs1 [Example 41, 5-(3,5-dimethylisoxazol-4-yl)-2-methoxy-N-(thiazol-2-ylmethyl)pyridin-3-amine] | ≤ 300 | 300 to 3000 | ≤ 300 | 300 to 3000 | – |
